Literature values as cited in patent US20040039052A1, “Urinary incontinence therapy” (priority 1997, published 2004).

How the values were obtained:
bladder afferents = conditions: rats; intravesicular 10-100 μmol; cited from earlier work
[1] = system: patients with detrusor hyperreflexia (DH); conditions: intravesical instillation; cited from earlier work
[2] = system: vanilloid receptor-mediated release of tachykinins in the rat urinary bladder; conditions: rats with experimentally induced hypertrophy; cited from earlier work

For `COc1cc(CNC(=O)CCCC/C=C/C(C)C)ccc1O` [CAP, capsaicin, reference compound], the “desensitization of bladder afferents” value (bladder afferents) is given as “long-lasting desensitization of bladder afferents”, the “period after treatment when symptoms deteriorate” value [1] is given as 2 to 4 days and the tolerability upon instillation [1] is given as “intense burning and pain in the lower abdomen upon instillation”. For the same compound, the “reducing symptoms in rats having an experimentally induced hypertrophy” value [2] was “effective in reducing symptoms”.
